In experiment [1] the target is CDK2/Cyclin A (Homo sapiens, UniProt P24941). The experiment can be described thus: Inhibition of CDK2/Cyclin A Retinoblastoma Kinase Activity. The format is biochemical. The conditions noted are these: for Ki: apparent Ki, CDK2/proteolyzed cyclin A, Rb fragment substrate, 25 μM ATP; for inhibition at 0.05 µM: read-out: % inhibition of CDK2 (@ 0.05 μM), compound at 0.05 μM. The method, boiled down:
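Human CDK2, baculovirus/insect-cell expressed, complexed with proteolyzed cyclin A (10 nM or 19 nM CDK2) phosphorylates an Rb fragment with 25 μM [32P/33P]ATP at pH 7.4, 30° C, for 60 or 75 minutes under initial-rate conditions. Filter-captured radioactivity is read by phosphorimager; apparent Ki from competitive-inhibition fits.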

Experiment [2] concerns the target human CDK4 and genetically truncated (1-264) cyclin D3 (Homo sapiens, UniProt P11802). The experiment can be described thus: Inhibition of CDK4/Cyclin D Retinoblastoma Kinase Activity. The format is biochemical. The conditions noted are these: apparent Ki, CDK4/truncated cyclin D3, Rb fragment substrate, 25 μM ATP. Here is the method:
Cyclin-dependent kinase activity was measured by quantifying the enzyme-catalyzed, time-dependent incorporation of radioactive phosphate from [^32P]ATP or [^33P]ATP into a protein substrate. Unless noted otherwise, assays were performed in 96-well plates in a total volume of 50 μL, in the presence of 10 mM HEPES (N-[2-hydroxyethyl]piperazine-N′-[2-ethanesulfonic acid]) (pH 7.4), 10 mM MgCl2, 25 μM adenosine triphosphate (ATP), 1 mg/mL ovalbumin, 5 μg/mL leupeptin, 1 mM dithiothreitol, 10 mM β-glycerophosphate, 0.1 mM sodium vanadate, 1 mM sodium fluoride, 2.5 mM ethylene glycol-bis(β-aminoethyl ether)-N,N,N′N′-tetraacetic acid (EGTA), 2% (v/v) dimethylsulfoxide, and 0.03-0.4 μCi [^32/33P]ATP per reaction. Reactions were initiated with enzyme, incubated at 30° C., and terminated after 20 minutes by the addition of ethylenediaminetetraacetic acid (EDTA) to 250 mM. The phosphorylated substrate was then captured on a nitrocellulose or phosphocellulose membrane using a 96-well filtration manifold, and unincorporated radioactivity was removed by repeated washing with 0.85% phosphoric acid. Radioactivity was quantified by exposing the dried membranes to a phosphorimager.
Inhibition was measured relative to control wells that contained all reaction components including 2% (v/v) DMSO but no compound, after subtraction of background radioactivity measured in the absence of enzyme. Apparent Ki values of discrete compounds were measured by assaying enzyme activity in the presence of different inhibitor compound concentrations and subtracting the background radioactivity measured in the absence of enzyme. The kinetic parameters (kcat, Km for ATP) were measured for each enzyme under the usual assay conditions by determining the dependence of initial rates on ATP concentration. Inhibition data were fit to an equation for competitive inhibition using Kaleidagraph (Synergy Software), or were fit to an equation for competitive tight-binding inhibition using the software KineTic (BioKin, Ltd.).
Inhibition of CDK4/Cyclin D Retinoblastoma Kinase Activity:
A complex of human CDK4 and genetically truncated (1-264) cyclin D3 was purified using traditional biochemical chromatographic techniques from insect cells that had been co-infected with the corresponding baculovirus expression vectors (see e.g., Meijer and Kim, “Chemical Inhibitors of Cyclin-Dependent Kinases,” Methods in Enzymol,. vol. 283 (1997), pp. 113-128.). The enzyme complex (5 nM) was assayed with 0.3-0.5 μg of purified recombinant retinoblastoma protein fragment (Rb) as a substrate. The engineered Rb fragment (residues 386-928 of the native retinoblastoma protein; 62.3 kDa) contains the majority of the phosphorylation sites found in the native 106-kDa protein, as well as a tag of six histidine residues for ease of purification. Phosphorylated Rb substrate was captured by microfiltration on a nitrocellulose membrane and quantified using a phosphorimager as described above. For measurement of tight-binding inhibitors, the assay duration was extended to 60 minutes, during which the time-dependence of product formation was linear and initial rate conditions were met.

Experiment [3] concerns HCT-116 cell line. The experiment can be described thus: Inhibition of cell growth, tetrazolium salt (MTT) assay. The experiment is classed as cell-based. The following applies: Homo sapiens, MTT; for IC50: HCT-116, 120 h, three to five days, read-out: HCT-116 IC50; for inhibition at 0.175 µM: HCT-116, HCT-116 cells, compound at 0.175 uM. In short, it runs like this:
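MTT colorimetric viability: three-to-five-day compound exposure in 0.5% (v/v) DMSO at 37° C, MTT 0.2 mg/mL for the last 4 h, A540 compared with vehicle-treated cells.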

Each structure is given as a SMILES string. Like-named read-outs stand apart in the source and are kept apart here. Some results are limits rather than exact numbers.

Chain of human CDK4 and genetically truncated (1-264) cyclin D3 (P11802 whole entry, the tested form may be a part): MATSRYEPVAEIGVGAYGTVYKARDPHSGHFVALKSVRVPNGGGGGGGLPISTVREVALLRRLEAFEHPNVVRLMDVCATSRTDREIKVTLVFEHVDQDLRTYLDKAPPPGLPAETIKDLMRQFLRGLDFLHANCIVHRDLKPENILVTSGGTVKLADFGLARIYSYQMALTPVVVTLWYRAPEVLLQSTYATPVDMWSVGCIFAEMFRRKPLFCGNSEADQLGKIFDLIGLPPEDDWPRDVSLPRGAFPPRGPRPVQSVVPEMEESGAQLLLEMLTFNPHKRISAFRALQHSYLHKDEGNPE
Chain of human CDK4 and genetically truncated (1-264) cyclin D3 (P30281 1-264 partner): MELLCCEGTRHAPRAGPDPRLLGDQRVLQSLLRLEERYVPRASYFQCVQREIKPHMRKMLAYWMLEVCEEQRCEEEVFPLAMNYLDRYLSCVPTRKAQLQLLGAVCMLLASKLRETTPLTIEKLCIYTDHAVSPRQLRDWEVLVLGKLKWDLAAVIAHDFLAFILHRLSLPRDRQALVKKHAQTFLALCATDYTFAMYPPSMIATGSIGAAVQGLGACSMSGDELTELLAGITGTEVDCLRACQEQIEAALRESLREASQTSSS

Regarding `CCOC(=O)N1CCC(Nc2nc(N)c(C(=O)c3c(F)cccc3F)s2)CC1` [Example A1, 4-[4-Amino-5-(2,6-difluoro-benzoyl)-thiazol-2-ylamino]-piperidine-1-carboxylic Acid Ethyl Ester], the Ki came to 190 nM in experiment [1] and 82 nM in experiment [2].
As for `CC1(C)CC(Nc2nc(N)c(C(=O)c3c(F)cccc3F)s2)CC(C)(C)N1` [Example A2, [4-Amino-2-(2,2,6,6-tetramethyl-piperidin-4-ylamino)-thiazol-5-yl]-(2,6-difluoro-phenyl)-methanone], the Ki in experiment [1] was above 5000 nM; in experiment [2], above 2000 nM.
In the case of `Nc1nc(NC2CCNCC2)sc1C(=O)c1c(F)cccc1F` [Example A6, [4-Amino-2-(piperidin-4-ylamino)-thiazol-5-yl]-(2,6-difluoro-phenyl)-methanone], the Ki in experiment [1] was found to be 1000 nM; in experiment [2], 830 nM.
In the case of `CC(C)NC(=O)N1CCC(Nc2nc(N)c(C(=O)c3c(F)cccc3F)s2)CC1` [Example B1, 4-[4-Amino-5-(2,6-difluoro-benzoyl)-thiazol-2-ylamino]-piperidine-1-carboxylic Acid Isopropylamide], the Ki in experiment [1] turned out to be 410 nM; in experiment [2], 380 nM.
As for `C[C@@H](NC(=O)N1CCC(Nc2nc(N)c(C(=O)c3c(F)cccc3F)s2)CC1)c1ccccc1` [Example B3, 4-[4-Amino-5-(2,6-difluoro-benzoyl)-thiazol-2-ylamino]-piperidine-1-carboxylic Acid (1R-Phenyl-ethyl)-amide], the Ki turned out to be 190 nM in experiment [1] and 420 nM in experiment [2].
Turning to `COc1ccc(OC)c(NC(=O)N2CCC(Nc3nc(N)c(C(=O)c4c(F)cccc4F)s3)CC2)c1` [Example B4, 4-[4-Amino-5-(2,6-difluoro-benzoyl)-thiazol-2-ylamino]-piperidine-1-carboxylic Acid (2,5-Dimethoxy-phenyl)-amide], the Ki in experiment [1] was found to be 66 nM; in experiment [2] it was 62 nM.
Take `Nc1nc(NC2CCN(C(=O)c3ccc(Br)cc3)C2)sc1C(=O)c1c(F)cccc1F` (stereo not drawn) [Example C18, {4-Amino-2-[1-(4-bromo-benzoyl)-pyrrolidin-3-ylamino]-thiazol-5-yl}-(2,6-difluoro-phenyl)-methanone]: the figures for the Ki in experiment [1] and in experiment [2] were 77 nM and 210 nM, respectively.
In the same order, the values of `Cc1ccc(C(=O)/C=C/C(=O)N2CCC(Nc3nc(N)c(C(=O)c4c(F)cccc4F)s3)CC2)cc1` [Example D9, 1-{4-[4-Amino-5-(2,6-difluoro-benzoyl)-thiazol-2-ylamino]-piperidin-1-yl}-4-p-tolyl-but-2(E)-ene-1,4-dione] are 510 nM and 150 nM.
As usually defined, the IC50 is the concentration that inhibits the measured activity by half. Regarding `CC(=O)/C=C/C(=O)N1CCC(Nc2nc(N)c(C(=O)c3c(F)cccc3F)s2)CC1` [Example D16, 1-{4-[4-Amino-5-(2,6-difluoro-benzoyl)-thiazol-2-ylamino]-piperidin-1-yl}-pent-2(E)-ene-1,4-dione], the results for the IC50 in experiment [3] (first HCT-116 column (c4)) and in experiment [3] (second HCT-116 column (c5)) were 82 nM and 150 nM, respectively. In experiment [2], the Ki is 140 nM.
The term inhibition denotes the change of the read-out against control, counted positive when it falls. With `CC1=NNC(=O)C1CNCCCS(=O)(=O)N1CCC(Nc2nc(N)c(C(=O)c3c(F)cccc3F)s2)CC1` (stereo not drawn) [Example V172], the inhibition at 0.175 µM in experiment [3] was 11%. The inhibition at 0.05 µM in experiment [1] is 81%.
Turning to `Cc1c(CNCCCS(=O)(=O)N2CCC(Nc3nc(N)c(C(=O)c4c(F)cccc4F)s3)CC2)cnn1C` [Example V173], the inhibition at 0.175 µM in experiment [3] is 0%. Besides, the inhibition at 0.05 µM in experiment [1] amounted to 85%.
As to `Cc1nnc(CCNCCCS(=O)(=O)N2CCC(Nc3nc(N)c(C(=O)c4c(F)cccc4F)s3)CC2)[nH]1` [Example V174], in experiment [3], the inhibition at 0.175 µM amounted to 26%. Besides, the inhibition at 0.05 µM in experiment [1] was determined as 84%.
As for `Cc1nnc(CCNCCCS(=O)(=O)N2CCC(Nc3nc(N)c(C(=O)c4c(F)cccc4F)s3)CC2)o1` [Example V175], the inhibition at 0.175 µM in experiment [3] is 5%. For the same compound, the inhibition at 0.05 µM in experiment [1] came to 78%.
For the compound `Cc1nnc(CN(C)CCCS(=O)(=O)N2CCC(Nc3nc(N)c(C(=O)c4c(F)cccc4F)s3)CC2)o1` [Example V176], the inhibition at 0.175 µM in experiment [3] stood at 0%. In experiment [1], the inhibition at 0.05 µM stood at 73%.
`C=C(C)CN(C)CCCS(=O)(=O)N1CCC(Nc2nc(N)c(C(=O)c3c(F)cccc3F)s2)CC1` [Example V177, (4-Amino-2-{[1-({3-[methyl(2-methyl-2-propen-1-yl)amino]propyl}sulfonyl)-4-piperidinyl]amino}-1,3-thiazol-5-yl)(2,6-difluorophenyl)methanone.]: in experiment [3] (first HCT-116 column (c4)), the IC50 amounted to 90 nM. Also, the Ki in experiment [1] stood at 17 nM.
Consider `Nc1nc(NC2CCN(S(=O)(=O)CCCNCc3cccc(F)c3)CC2)sc1C(=O)c1c(F)cccc1F` [Example V178, (4-Amino-2-{[1-({3-[(3-fluorobenzyl)amino]propyl}sulfonyl)-4-piperidinyl]amino}-1,3-thiazol-5-yl)(2,6-difluorophenyl)methanone.], for which the IC50 in experiment [3] (first HCT-116 column (c4)) amounted to 80 nM. Besides, the Ki in experiment [1] was 4.6 nM.
As for `CN(CCCS(=O)(=O)N1CCC(Nc2nc(N)c(C(=O)c3c(F)cccc3F)s2)CC1)Cc1ccco1` [Example V179, (4-Amino-2-{[1-({3-[(2-furylmethyl)(methyl)amino]propyl}sulfonyl)-4-piperidinyl]amino}-1,3-thiazol-5-yl)(2,6-difluorophenyl)methanone.], the IC50 in experiment [3] (first HCT-116 column (c4)) stood at 170 nM. The Ki in experiment [1] stood at 11 nM.
In the same order, the values of `Cc1cccc(CNCCCS(=O)(=O)N2CCC(Nc3nc(N)c(C(=O)c4c(F)cccc4F)s3)CC2)c1` [Example V180, (4-Amino-2-{[1-({3-[(3-methylbenzyl)amino]propyl}sulfonyl)-4-piperidinyl]amino}-1,3-thiazol-5-yl)(2,6-difluorophenyl)methanone.] are 90 nM and 4 nM.
Turning to `CN(CCCS(=O)(=O)N1CCC(Nc2nc(N)c(C(=O)c3c(F)cccc3F)s2)CC1)Cc1ccccc1` [Example V181, (4-Amino-2-{[1-({3-[benzyl(methyl)amino]propyl}sulfonyl)-4-piperidinyl]amino}-1,3-thiazol-5-yl)(2,6-difluorophenyl)methanone.], the IC50 in experiment [3] (first HCT-116 column (c4)) is 60 nM. In addition, the Ki in experiment [1] was 6.5 nM.
As to `Nc1nc(NC2CCN(S(=O)(=O)CCCNCc3ccc(F)cc3)CC2)sc1C(=O)c1c(F)cccc1F` [Example V182, (4-Amino-2-{[1-({3-[(4-fluorobenzyl)amino]propyl}sulfonyl)-4-piperidinyl]amino}-1,3-thiazol-5-yl)(2,6-difluorophenyl)methanone.], the half-inhibitory concentration (IC50) in experiment [3] (first HCT-116 column (c4)) was found to be 70 nM. In addition, the Ki in experiment [1] was 4.7 nM.
As for `Nc1nc(NC2CCN(S(=O)(=O)CCCNCc3ccccc3F)CC2)sc1C(=O)c1c(F)cccc1F` [Example V183, (4-Amino-2-{[1-({3-[(2-fluorobenzyl)amino]propyl}sulfonyl)-4-piperidinyl]amino}-1,3-thiazol-5-yl)(2,6-difluorophenyl)methanone.], in experiment [3] (first HCT-116 column (c4)), the IC50 came to 90 nM. In addition, the Ki in experiment [1] was found to be 4 nM.
Take `Cc1ccccc1CNCCCS(=O)(=O)N1CCC(Nc2nc(N)c(C(=O)c3c(F)cccc3F)s2)CC1` [Example V184, (4-Amino-2-{[1-({3-[(2-methylbenzyl)amino]propyl}sulfonyl)-4-piperidinyl]amino}-1,3-thiazol-5-yl)(2,6-difluorophenyl)methanone.]: in experiment [3] (first HCT-116 column (c4)), the IC50 was 60 nM. For the same compound, the Ki in experiment [1] was 3.6 nM.

(Values after US20050101595A1, “N-containing cycloalkyl-substituted amino-thiazole derivatives and pharmaceutical compositions for inhibiting cell proliferation and methods for their use” (PFIZER INC., priority 2003, published 2005).)
